Literature values, collected in publication PMC10673369, “Preliminary SAR of Novel Pleuromutilin–Polyamine Conjugates” (Microorganisms, 2023).

Experiments:
Design in all cases: method as in PMID 22191527, PMID 27742734, PMID 23836172, PMID 30019769
[1] = system: fastidious Gram-negative bacteria, including Haemophilus influenza and Moraxella catarrhalis; details: incl. Haemophilus influenza and Moraxella catarrhalis; cited from earlier work
[2] = system: aerobic Gram-positive bacteria; details: incl. MRSA, VISA, hVISA, VRSA, PRSP, multidrug-resistant S. pneumoniae, VRE; cited from earlier work
[3] = system: non-fastidious Gram-negative bacteria; details: cited from earlier work

C=C[C@]1(C)C[C@@H](OC(=O)CS[C@@H]2CC[C@@H](N)C[C@H]2O)[C@]2(C)[C@H](C)CC[C@]3(CCC(=O)[C@H]32)[C@@H](C)[C@@H]1O [Compound 6, lefamulin]
Antibacterial activity against fastidious Gram-negative bacteria [1]: favorable to moderate activity
Antibacterial activity against aerobic Gram-positive bacteria [2]: potent antibacterial activity
Antibacterial activity against non-fastidious Gram-negative bacteria [3]: no activity
